melting point [°C] | Compound
145 to 147 | O=C(Nc1cccc2ncccc12)C(Cl)(Cl)Cl
84 to 86 | CC(=O)SCCc1nc[nH]n1
222 to 223 | CC1(c2ccc(O)cc2)C(=O)Nc2cc(Cl)cc(Cl)c2C1=O (centres undefined)
68 to 69 | CCCCCCCCCCN=C1SC(=CC(=O)O)C(=O)N1CCCCCCCCCC
154 | O=C(CO)N[C@H]1CC[C@H](CCN2CCC(c3cccc4c3CCO4)CC2)CC1
152 | CC(C)(C)OC(=O)CCc1ccnc(-c2nc(=O)c3ccc(Cl)cc3s2)c1
74 to 75 | O=[N+]([O-])c1ccc(CN(CCO)CCO)cc1
171 | COc1ccc2ccccc2c1OP(=O)(O)O
72 to 74 | COc1cc(CCCCCCCCCCCO)ccc1O
190 to 192 | OCc1nc(-c2ccc3nc(-c4ccc(Cl)cc4)cn3c2)cs1
190 | CCCCC(O)c1nc2c(C(F)(F)F)cccc2c(O)c1C(=O)Nc1nccs1 (centres undefined)
131 to 132 | CC(=O)NC(C)COC1CCC(c2nc3ccc(OCC4CC4)cc3o2)CC1 (centres undefined)
75.5 to 78 | CCCCCCCCCCCCCCCCCCN1CC(O)C1
> 320 | O=C1c2ccccc2C(=O)c2c1c(Br)n1c2Cc2ccccc2C1
99 to 100 | CCCCCCCCCCCCCCCCCCS(=O)(=O)N[C@H]1CCCNC(=O)C1
150 to 151 | COc1ccc(N2CCN(c3c(C)c(C)c4c(c3C)C(O)C(C)(C)O4)CC2)cc1OC (centres undefined)
74 to 76 | Cc1ccc(C(=O)Oc2ccccc2)cc1
132 | CCS(=O)(=O)n1cc(C(=O)c2ccn3c2CSC3c2cccnc2)c2ccc(-c3ccc(F)cc3)cc21 (centres undefined)
78 to 79 | Cc1ccc(C(=O)C2C(=O)CCC(C)(C)C2=O)cc1 (centres undefined)
183 to 185 | CCN1C(=O)CCCc2c1ccc(Nc1ncc(Cl)c(Nc3ccccc3-n3cccn3)n1)c2OC
98 to 100 | O=C(NC(CS)Cc1ccccc1)N1CCSCC1 (single isomer, unassigned; (+))
220 | O=C(O)c1cc(=O)c2cc([N+](=O)[O-])ccc2s1
63 to 64 | CCOC(=O)c1c2c3c(cccc3n1C)C(OC)CC2 (centres undefined)
229 to 230 | COc1ccc(C2=NN(c3ccc(NS(=O)(=O)c4ccc(C)cc4)cc3)C(=O)[C@H]3CC=CC[C@@H]23)cc1OC (relative stereo)
179 to 181 | COc1nc(SC)nc(Cl)c1C(=O)O
199 to 200 | N#Cc1[nH]c2ccc(Cl)cc2c1-c1c(F)cccc1F

melting point [°C] | Compound
121 to 123 | CN(c1cccc2cc(C3=NCC(CC(=O)O)S3)[nH]c12)S(=O)(=O)c1nccs1 (centres undefined)
109 to 110 | COC(=O)C[C@H](O)CC(=O)C=Cc1c(-c2ccc(F)cc2)c(-c2ccc(F)cc2)c(C(=O)Nc2ccc(S(N)(=O)=O)cc2)n1C(C)C
108 to 110 | O=S(=O)(NCc1ccc(Br)cc1)c1ccccc1Br
35 to 38 | NOCC=Cc1ccc(Br)cc1
108 to 109 | COc1ccc(COc2nn(Cc3ccccc3)cc2CO)cc1OCc1nc(-c2ccco2)oc1C
186 to 190 | N#Cc1c[nH]c2ccc([N+](=O)[O-])cc12
193 to 196 | O=C(Nc1ccc2cc(CN3CCC(CCO)CC3)cnc2c1)c1ccc(-c2ccc(F)cc2)cc1
155 to 158 | O=C1CC(c2cccc(-n3ccnc3)c2)=Nc2cc(N3CC[C@@H](O)C3)c(-c3ccc(F)cc3)cc2N1
236 to 238 | O=C(Nc1ccc(-n2nc(C(F)(F)F)cc2C2CC2)nc1)c1ccc2[nH]nnc2c1
129 to 132 | O=c1c2c(Cc3cccc(OC(F)(F)F)c3)n[nH]c2c2cccnc2n1-c1cccc(C(F)(F)F)c1
34 to 35 | COc1ccc(C(=O)CCC2CCCCC2)c(OC)c1
75 to 76 | CCOC(=O)C(C)(C)OCc1oc(-c2ccc(Cl)cc2)nc1C
130 to 131 | C=C(C)COc1ccc(Cl)cc1CN(CC)c1ccc(C(=O)O)nn1
249 to 252 | COc1ccc(-c2ccc(C(=O)O)cc2)c2c1OC(C)(C)C2
179 to 180 | CCCCc1nc2cccc(C(=O)OCc3ccncc3)c2n1Cc1ccc(-c2ccccc2-c2nnn[nH]2)cc1
192 to 193 | O=c1[nH]c2cc(Cl)cc(OCCNCc3ccccc3)c2[nH]1
247 to 248 | Brc1ccc(-c2ccc(-c3ccc(Br)s3)c3nsnc23)s1
74 to 76 | CCOC(=O)CCCCn1c(C)cn(N=Cc2cccnc2)c1=O
226 to 228 | Cc1cc(NC(=O)C2=C(O)c3ccccc3S(=O)(=O)CC2)no1
163 to 165 | CCN(c1ccc(Cl)cc1C(=O)O)S(=O)(=O)c1ccc(C)cc1
178 to 180 | COc1cc(SCCCc2ccc(-c3ccc(CCCSc4ccc(OCC(=O)O)c(OC)c4)cc3)cc2)ccc1OCC(=O)O
158 to 160 | Nc1ccc(C2=NNC(c3ccccn3)=NN2)nc1
122 to 125 | N[C@@H](Cc1ccccc1)C(=O)N(CC1CC(Br)=NO1)C(=O)OCc1ccccc1 (some centres undefined)
141 to 143 | CCCCN1C(=O)CC(=O)N(C)c2ccccc21
108 to 110 | COC(=O)C(=Cc1cc(OC)cc(OC)c1)c1ccc(Oc2ccc(C=O)cc2)cc1

Continued, compound first:

Compound | melting point [°C]
Cc1cnc(C2(CCCCN3CCC(N4Cc5ccccc5C4=O)CC3)c3ccccc3-c3ccccc32)s1 | 146 to 148
OC1(c2ccc(-c3ccc(F)cc3)cc2)CN2CCC1CC2 (centres undefined) | 172 to 173
CCOC(=O)CCc1cc(OCC(=O)O)nn1Cc1ccc(Cl)cc1Cl | 129 to 131
CC1(C)CCC2(CC1)CC(=O)N(CCCn1c(=O)sc3ccc(Cl)cc31)C2=O | 159 to 160
CCCCCOc1ccc(CCOc2ccc(/C=C(\OCC)C(=O)O)cc2OCCCC)cc1F | 102
Cc1cc(-c2ccc(-c3ccoc3)cc2)n(-c2ccc(S(C)(=O)=O)cc2)c1 | 193 to 195
Cn1c(CNC(=O)Nc2ccc3c(c2)CCC3NC(=O)OC(C)(C)C)c(-c2ccccc2)c2cc(Cl)ccc2c1=O (centres undefined) | 225 to 227
C=CCOc1ccc2nc(S(N)(=O)=O)sc2c1 | 184 to 187
COc1cc2oc(=O)c(CCO)c(C)c2cc1OC(C)C | 110 to 112
Nc1nccnc1Cc1ccccc1 | 93 to 96
Nc1cc(-n2cc(C(=O)O)c(=O)c3cc([N+](=O)[O-])c(F)c(F)c32)c(F)cc1F | 142 to 143
Cc1ccc(-c2nc3c(o2)C(=O)c2ccccc2C3=O)cc1 | > 260
O=C(O)Cn1cccc(NC(=O)CCc2ccccc2)c1=O | 195 to 197
COc1ccc(C2=C(CC(C)N(CCO)C(C)C)C(=O)NCCC2)cc1 (centres undefined) | 109 to 111
O=C(O)CCC(=O)c1ccc(CCNS(=O)(=O)CCc2ccc(Cl)cc2)cc1 | 112
N#Cc1nn(-c2c(Cl)cc(C(F)(F)F)cc2Cl)c(Cl)c1C#CBr | 153
Cc1cc(Nc2nc(Nc3ccc(N)cc3)nc3ccccc23)[nH]n1 | 164 to 167
CC(=O)OC[C@H]1OC(O)(Cl)[C@H](NC(=O)c2cccnc2)[C@@H](OC(C)=O)[C@@H]1OC(C)=O (some centres undefined) | 175 to 176
CCCC1(CCC)c2ccccc2-c2cc(NC(=O)c3cc4oc5ccccc5c4cc3OC)c(O)cc21 | 252 to 255
CCOc1c(Nc2ccc(C#N)cc2)c(=O)c1=O | 218 to 222
Cc1cccc(-c2n[nH]cc2-c2ccc(F)c(-c3ccc(CN4CCOCC4)cn3)c2)n1 | 68 to 70
COC(=O)C1=NC2=COc3ccc(C)cc3N2C1C(=O)O (centres undefined) | 178 to 179
CS(=O)(=O)Nc1ccc2c(c1)CC(=O)N2CCN1CCN(Cc2ccccc2)CC1 | 196 to 198
Nc1ccccc1CN[C@@H](CSCC(=O)O)C(=O)O | 214

Compound | melting point [°C]
Cc1cc(C2=NOC(c3cc(Cl)cc(Cl)c3)(C(F)(F)F)C2)ccc1C(=O)NC1CCCO1 (centres undefined) | 144 to 147
COc1ccc(S(=O)(=O)c2c(-c3ccccc3)oc3ccccc23)cc1 | 146 to 148
COc1ccc(CNc2nc(CCC(=O)O)nc3sc4ccccc4c23)cc1Cl | 218
N#Cc1ccc2c(c1)c(CCN1C(=O)c3ccccc3C1=O)cn2Cc1ccccc1 | 182 to 184
COc1c(Cl)ccc(-c2cc(N)c(Cl)c(C(=O)N3CCCO3)n2)c1F | 204 to 207
N#Cc1cc([N+](=O)[O-])ccc1Oc1ccc(Cl)c(Cl)c1 | 154 to 155
CC1CC2C3C=C(Cl)C4=CC(=O)CCC4(C)C3C(O)CC2(C)C1C(=O)CO (centres undefined) | 229
Cc1ccc(Cl)cc1N1C(=O)CN(c2ccccc2)C1=S | 168 to 170
COc1cc2c(cc1OC)N(C)C(=O)CN=C2c1cccc(CO)c1 | 143 to 146
CN1CC(CCN2CCN(c3ccc(C(F)(F)F)cc3)CC2)OC1=O (centres undefined) | 116 to 117
Cc1cc(F)ccc1-c1nc(NC(C)(CO)CO)nc2c1ccc(=O)n2-c1ccccc1F | 160 to 162
COc1ccc(C(=O)c2cccc(OC)c2)cc1 | 53 to 55
O=C(O)C1=Cc2ccc(C(F)(F)F)cc2OC1C(F)(F)F (centres undefined) | 190 to 194
O=C(O)COc1cc(F)cc(F)c1C(=O)NCc1ccc(Br)cc1F | 158 to 159
C#CCN(C(=O)CCl)c1c(C)nc(N(C)C)nc1C | 108 to 110
O=C(CCCCCl)c1cc2c3c(c1)CCN3C(=O)CC2 | 110 to 111
COc1ccccc1C1=CCN(C[C@@H](CC2CCCCC2)NC(=O)C2(C)CCCCC2)CC1 | 93 to 95
CCCCCCCc1ccc(C2CC(CCCCCC)C(=O)O2)cc1 (centres undefined) | 45.9 to 48
CC(=O)N1N=C(c2ccncc2)OC1c1c(F)cccc1F (centres undefined) | 119 to 121
COc1ccn2nc(-c3ccccc3)c(-c3ccc(=O)n(C(C)C)n3)c2c1 | 180 to 182
CCCCCCCCCCCCCCCCC(C)C(=S)OC (centres undefined) | 39 to 40
CCOC(=O)c1[nH]cc2c1NC1=C(C(=O)CCC1)C2c1ccc(Sc2nc3cc(Cl)c(Cl)cc3[nH]2)o1 (centres undefined) | 180
CC(C)CNc1ccc(Cl)cc1C(O)c1ccccc1OCc1ccccc1 (centres undefined) | 79 to 80
Cc1cc(C(C)NC(=O)NO)c(C)s1 (centres undefined) | 124 to 126

— a melting point compilation (Tetko et al.; mined from patent text by program, amines drawn as free bases though some values may be those of a salt)
